Bridge positions count the residues as written; N and C are the ends. Peptide text beside a SMILES is read from it.
How the values were obtained:
[1] = tested on: furin-like enzyme activity in PANC-1 cell lysate; test: Total furin-like enzyme activity in PANC-1 cell lysate; assay type: biochemical, human; conditions: peptide 100 µM
Description: The presence of furin in PANC-1 cell lysate was indicated by analyzing the release of fluorescent AMC product after incubation of furin substrate (Pyr-Arg-Thr-Lys-Arg-AMC) in the lysate, as described elsewhere.[31],[32] However, we are aware that this assay tends to reflect total furin-like enzyme activity rather than the activity of furin exclusively. This is the case because the liberation of AMC may be catalyzed not only by furin but also by an enzyme with a similar substrate preference, such as other PCs.[31] […] For comparison, the effect of a strong trypsin inhibitor, […] SFTI-1, on furin-like activity was insignificant under the same assay conditions. […] It is likely that SFTI-1 may provide protection for furin inhibitors from degradation by trypsin-like proteases. […]
µL for matriptases and 100 µL for furin. Measurements were carried out using excitation and emission wavelengths of 380 nm and 450 nm. The percentage inhibition of an enzyme was calculated relative to the control sample without an inhibitor. […]
Total furin-like enzyme inhibition/activity in PANC-1 cell lysates
Cell line and cell culture. The pancreatic cancer cell line, PANC-1, was obtained from the American Type Culture Collection, ATCC (Manassas, USA). PANC-1, a human pancreatic cancer cell line, was isolated from the pancreatic duct (ATCC, CRL-1469) and was cultured in Dulbecco’s Modified Eagle’s Medium (DMEM) by supplementing 10% fetal bovine serum (FBS) and 1% of penicillin/streptomycin (P/S). Cells were cultured at 37 °C with 5% CO2 in a humidified atmosphere. Cells were maintained in a 75 cm2 tissue culture flask. The medium was replaced every two days. The subcultivation ratio was […]
Preparation of lysates. PANC-1 cells were seeded in a Petri dishes. After 24 hours, […] were collected and centrifuged at 975 × g at 4 °C for 9 minutes. The supernatant was removed, and the cells were resuspended in a cold PBS buffer. The cells were centrifuged again at 900 × g at 4 °C for 5 minutes.
The supernatant was removed. Cells were suspended in Halt Protease Inhibitor Cocktail, EDTA-Free (100X) (Thermo Fisher Scientific). The samples were stored for 2 hours at -80°C. The samples were then defrosted and centrifuged at 16 000 × g at 4 °C for 20 minutes. The supernatant was stored at -80 […]
The inhibitory potency of selected peptides was examined in cell lysate alone or in presence of sunflower trypsin inhibitor (SFTI-1)6 sing furin fluorogenic substrate […] (Pepta Nova, Germany). Furin activity was determined by monitoring the AMC liberation over time with a plate reader. Measurements were performed using 96-well black plates (BRAND, Germany).
The general procedure was according to.7 In short: 20 µL of cell lysate (diluted 10 times with assay buffer pH 7.5 100 mM HEPES with 1 mM CaCl 2) was added to the well containing 60 µL of water, after 15 min in 37 °C 10 µL of peptide solution (final concentration in well 100 µM) was added. After 30 min incubation in 37 °C 10 µL substrate (100 µM final concentration) was added. […]
(§1) Next step was addition of appropriate peptide solution
(§2) (final concentration in well 100 µM) and 30 min incubation in 37 °C. After this time 10 µL substrate (100 µM final concentration) was added to the well. Percentage inhibition of the enzyme was calculated relative to the control sample without inhibitor.
(§3) Human serum from plasma (Sigma Aldrich, Germany) was prepared for the assay as referred previously.8 The experiments were carried out according to the procedure described before.2 The initial concentration of the peptide solutions was 1.54 mM. Each peptide solution was then diluted 10 times with human serum and incubated at 37 °C. Immediately after the start of incubation, 1, 2, 3, 5 and 24

[2] = Stability in human serum (HPLC); assay type: in vitro ADME; design: remaining at 5 h / remaining at 48 h: dose or concentration left out as unconfirmed; conditions: 37 °C; for remaining at 5 h: after 5 h of incubation, read-out: intact peptide detected by HPLC; for state of peptide in human serum: after 24 h; for remaining at 48 h: after 48 h of incubation, read-out: initial concentration of peptide remaining unchanged (HPLC)
Description: Next, we examined the stabilities of inhibitors 3, 5, 6, and FI in human serum (Figure 6). As expected, both monocyclic peptides (3 and FI) were degraded more rapidly than bicyclic inhibitors 5 and 6. After 5 h of incubation, about 25% of intact peptide 3 and 15% of FI were detected by HPLC. […] By contrast, the bicyclic peptides were clearly more resistant and stable. About 59% and 28% (based on HPLC data) of the initial concentrations of peptide 5 and peptide 6, respectively, remained unchanged even after 48 h of incubation. […] This possible protease-driven degradation was not confirmed in any additional experiments and must be treated with caution. It might be also speculated that the observed decrease in concentrations of both bicyclic peptides is related to binding to serum proteins during the long incubation process and subsequent sample preparation before HPLC analysis, as mentioned elsewhere.[36] Generally, our results are in accordance with the widely recognized observation that macrocyclization of peptides increases their stability. […]
as §1, §2
as §3, with “24 […]” for “24”
hours the samples of 200 μL were taken and mixed with 200 μL of acetonitrile to separate the human serum proteins. The formed precipitate was removed by centrifugation for 10 min at 13,000 rpm. The supernatant was stored in 3-4 °C for at least 1 hour before being analyzed by RP-HPLC (linear gradient 10-90% phase B, 40 min., Kinetex 5 μm XB-C18 100Å 150 x 4.6 mm) and MALDI-MS (Autoflex maX MALDI-TOF spectrometer, Bruker Daltonics, Germany). In order to determine peptide stability at each time point, the peptide peak area from recorded chromatograms was compared with the peptide peak area obtained directly after mixing peptide and plasma, and expressed as its percentage.
Molecular dynamics simulations […]
(Figure 5SA) bound to the furin active site were built based on the crystal structure of MT-SP1 in complex with SFTI-1 (PDB ID: 1P8J 2.0 Å) by aligning catalytic triad of both proteins in PyMOL, Molecular Graphics System, Version 2.0 Schrödinger, LLC software. Next, SFTI-1 peptide was replaced by one of the five designed ligands (Figure 5SB). Five resulting furin-inhibitor complexes were further used as starting structures for the molecular dynamic (MD) calculations.
The AMBER20 suite was used to perform MD simulations,9 ff14SBonlysc10 force field parameters were used. The initial complex structures were built in the xLeap module of AMBER20. The periodic boundary conditions with TIP3P11 octahedral water box and Na+ counterions were used. Two steps of energy minimization were performed: first 500 steepest descent and then 1000 conjugate gradient cycles with harmonic restraints of 10 kcal/mol/Å2 on the solute, next 3000 steepest descent and 3000 conjugate gradient cycles without restraints. Next, the systems were heated up to 300K for 10 ps in NVT ensemble followed by the simulations in NPT ensemble at the pressure of 105 Pa. Finally, five independent MD production runs of 100 ns for each furin-inhibitor complex were performed in NPT ensemble. The time integration step was 2 fs, the cutoff for non-bonded interactions was 8 Å, the SHAKE algorithm for the covalent bonds that included hydrogen atoms12 and the Particle Mesh Ewald procedure13 were used. The […]

| remaining at 5 h [2] [%] | state of peptide in human serum [2] | remaining at 48 h [2] [%] | SMILES | effect on furin-like activity in PANC-1 cell lysate [1] | reduction of initial enzyme activity in PANC-1 cell lysate ([1]; without SFTI-1) |
| --- | --- | --- | --- | --- | --- |
| ~15 | completely degraded |  | CC[C@H](C)[C@@H]1NC(=O)[C@@H]2CCCN2C(=O)[C@@H]2CCCN2C(=O)[C@H]([C@@H](C)CC)NC(=O)[C@H](CO)NC(=O)[C@H](CCCCN)NC(=O)[C@H](CCCCN)NC(=O)[C@@H](NC(=O)[C@H](CCCNC(=N)N)NC(=O)[C@@H](N)CCCCN)CSSC[C@@H](C(=O)N[C@@H](Cc2ccccc2)C(N)=O)NC1=O [FI, Lys-Arg-Cys(&)-Lys-Lys-Ser-Ile-Pro-Pro-Ile-Cys(&)-Phe-NH2, reference compound] (H-KRCKKSIPPICF-NH2; disulfide 3-11; N-terminus assumed) | reduced furin-like activity | about 50% |
| ~25 | completely degraded |  | CC[C@H](C)[C@@H]1NC(=O)[C@@H]2CCCN2C(=O)[C@@H]2CCCN2C(=O)[C@H]([C@@H](C)CC)NC(=O)[C@H](CO)NC(=O)[C@H](CCCCN)NC(=O)[C@H](CCCCN)NC(=O)[C@@H](NC(=O)[C@H](CCCNC(=N)N)NC(=O)[C@H](CCCNC(=N)N)NC(=O)[C@@H](N)CCCNC(=N)N)CSSC[C@@H](C(=O)N[C@@H](Cc2ccccc2)C(N)=O)NC1=O [inhibitor 3, Arg-Arg-Arg-Cys(&)-Lys-Lys-Ser-Ile-Pro-Pro-Ile-Cys(&)-Phe-NH2] (H-RRRCKKSIPPICF-NH2; disulfide 4-12) | reduced furin-like activity |  |
|  |  | ~59 | CC[C@H](C)[C@@H]1NC(=O)[C@@H]2CCCN2C(=O)[C@@H]2CCCN2C(=O)[C@H]([C@@H](C)CC)NC(=O)[C@H](CO)NC(=O)[C@H](CCCCN)NC(=O)[C@H](CCCCN)NC(=O)[C@@H]2CSSC[C@H](NC1=O)C(=O)N[C@@H](Cc1ccccc1)C(=O)N[C@@H](CCCCN)C(=O)N[C@@H](CCCNC(=N)N)C(=O)N[C@@H](CCCNC(=N)N)C(=O)N2 [inhibitor 5, &^1Lys-Arg-Arg-Cys(&^2)-Lys-Lys-Ser-Ile-Pro-Pro-Ile-Cys(&^2)-Phe&^1] (cyclo(KRRCKKSIPPICF); disulfide 4-12) | reduced furin-like activity |  |
|  |  | ~28 | CC[C@H](C)[C@@H]1NC(=O)[C@@H]2CCCN2C(=O)[C@@H]2CCCN2C(=O)[C@H]([C@@H](C)CC)NC(=O)[C@H](CO)NC(=O)[C@H](CCCCN)NC(=O)[C@H](CCCCN)NC(=O)[C@@H]2CSSC[C@H](NC1=O)C(=O)N[C@@H](Cc1ccccc1)C(=O)N[C@@H](CCCNC(=N)N)C(=O)N[C@@H](CCCNC(=N)N)C(=O)N[C@@H](CCCNC(=N)N)C(=O)N2 [inhibitor 6, &^1Arg-Arg-Arg-Cys(&^2)-Lys-Lys-Ser-Ile-Pro-Pro-Ile-Cys(&^2)-Phe&^1] (cyclo(RRRCKKSIPPICF); disulfide 4-12) | reduced furin-like activity |  |

— PMC10107917 (ACS Medicinal Chemistry Letters, 2023)
